# Experiments:
# Assay type in all cases: cell-based, human
# HeLa cells = assay: Quantification of apoptosis, Cell Death Detection ELISA, HeLa cells; conditions: 16 hours
# Protocol: (D) Quantification of apoptosis using a commercially available “Cell Death Detection ELISA” kit.
# The rate of apoptosis was determined with the Cell Death Detection kit (ELISA^PLUS, Roche Diagnostics, Mannheim, Germany) following the instructions of the manufacturer.
# Quantification of apoptosis using a commercially available “Cell Death Detection ELISA” kit. The enrichment factor, for untreated control cells arbitrarily set as 1, directly reflects the extent of apoptosis in HeLa cells after treatment with trichostatin A for 16 hours. (Contr.): untreated cells; (DMSO): DMSO control; (TSA): treated with 330 nM trichostatin A for 16 hours.
# p21^CIP1 = assay: Western blot of p21^CIP1 in HeLa cells; conditions: 16 hours
# Protocol: (A) Westem blot analysis. 50 μg of cellular protein were loaded on SDS-PAGE minigels. After electrotransfer, the filters were incubated with p21^CIP1, p27^KIP1, p16^INK4 and p45^SKP2. Equal protein loading was confirmed by a monoclonal actin antibody.
# Cellular extracts were separated in 8-12% SDS PAGE gels and electrotransferred as described elsewhere (Finzer et al., Oncogene 19 (2000), 3235-3244; Soto et al., Oncogene 18 (1999), 3187-3198). The following antibodies were used: cyclin E (HE 12), cyclin D 1 (HD 11), cdk2 (M2), (D-12; Santa Cruz Biotechnology, Inc., Santa Cruz, USA), cdk4 (C-22), cdk6 (C-21), p27^KIP1 (C-19), (K25020), p45^SKP2 (N-19), HPV18-E7 (N-19) and E2F-1 (KH95) (Santa Cruz Biotechnology, Inc. Santa Cruz, USA), p21^CIP1 (C24420; Transduction Laboratories, Lexington, USA), pRB (NCL-RB; Novocastra, UK), p16^INK4 (15126E, Pharmingen, San Diego, USA) and HPV 16 E7 (ZYMED Lab. Inc., San Francisco, USA). Cyclin A was kindly provided by M. Pagano (Pagano et al., EMBO J. 11 (1992), 961-971). Equal protein transfer and loading was routinely checked by incubating the filters with a monoclonal actin antibody (ICN Biomedicals, Ohio, USA).
# Western blot analysis. 50 μg of cellular protein was loaded on SDS-PAGE minigels. After electrotransfer, the filters were incubated with p21^CIP1, p27^KIP1, p16^INK4 and p45^SKP2. […]
# cyclin-cdk2 complex = assay: Western blot analysis of cdk2 immunoprecipitates from HeLa cells (p21, p27, E7 binding)
# Text: (B-E) Western blot analysis of the cdk2 complex. Cdk2 precipitates were separated in a 12% SDS-PAGE gel and immunoblotted with p21^CIP1 (B), p27^KIP1 (C) and HPV18 E7 specific antibodies.
# (B) Cdk2 activity after NaB application. Upper panel: Cdk 2 complexes were immunoprecipitated and assayed for their activity using histone H1 as substrate. Lower panels: Western blot analysis of the cdk 2 complexes which were precipitated, separated in a 12% SDS-PAGE gel and immunoblotted with specific antibodies used in panel A. Loading was verified by incubation with cdk 2 antibodies.
# For cell fractionation, cell monolayers were washed twice with PBS and harvested by trypsinisation. Cell extract preparation and cdk2 activity assays were exactly done as described by Blomberg and Hoffmann, Mol. Cell. Biol. 19 (1999), 6183-6194. In addition, cdk2 was immunoprecipitated and analyzed by immunoblotting. Beads used for cdk2 kinase assay were washed 3 times with lysis buffer (Blomberg and Hoffmann, 1999), incubated with Laemmli sample buffer and boiled for 5 min. Supernatant was analyzed by SDS-PAGE gels. Immunoblotting was carried out with the following antibodies: p21^CIP1 (C24420) and p27^KIP1 (K25020; Transduction Laboratories) or HPV18-E7 (N-19; Santa Cruz, Inc.). Cdk2 specific antibodies or preimmune serum were kindly provided by I. Hoffmann (DKFZ, Heidelberg).
# Western blot analysis of the cdk2 complex. Cdk2 precipitates were separated in a 12% SDS-PAGE gel and immunoblotted with p21^CIP1, p27^KIP1 and HPV 18 E7 specific antibodies. Equal loading was verified by incubation with cdk2 antibodies. PI: preimmune serum. (Contr.): untreated cells; (DMSO): DMSO control; (TSA): treated with 330 nM trichostatin A for 16 hours.
# [1] = 330 nM trichostatin A, 16 hours
Structure (SMILES),apoptosis (release of histone-associated DNA fragments) (HeLa cells; 330 nM trichostatin A),"apoptosis (release of histone-associated DNA fragments) (HeLa cells; 330 nM trichostatin A, listed as Trichostatin A)",p21^CIP1 protein level (p21^CIP1; 330 nM trichostatin A),E7 binding to the cdk2 complex (cyclin-cdk2 complex; [1]),interaction of p21^CIP1 and p27^KIP1 with cdk2 (cyclin-cdk2 complex; [1]),apoptosis (release of histone-associated DNA fragments) (HeLa cells; sodium butyrate),p21^CIP1 protein level (p21^CIP1; 6 mM sodium butyrate),"E7 in the cdk2 complex (cyclin-cdk2 complex; 6 mM sodium butyrate, 16 hours)","association of p21^CIP1 and p27^KIP1 with the cdk2 complex (cyclin-cdk2 complex; 6 mM sodium butyrate, 16 hours)","E7 bound to cyclin-cdk2 complexes, time course (cyclin-cdk2 complex; NaB time course)","association of p21^CIP1 and p27^KIP1 with the cdk2 complex, time course (cyclin-cdk2 complex; NaB time course)"
CC(/C=C/C(=O)NO)=C\[C@@H](C)C(=O)c1ccc(N(C)C)cc1 [trichostatin A],much stronger,Induction of Apoptosis,Induces,Loss of E7 Binding,Enhanced Interaction,–,–,–,–,–,–
CCCC(=O)[O-].[Na+] [sodium butyrate],–,–,–,–,–,induce programmed cell death to a significant extent,significantly induced,completely disappeared,both CK1s became associated with the cdk2 complex,completely disappeared between 12-16 hours,threshold amounts of both CKIs became associated with the cdk2 complex (between 12-16 hours)

# Reference: patent publication US20040132817A1, “Use of an histone deacetylase inhibitor for the treatment of diseases associated with an hpv infection” (priority 2001, published 2004)
